Test results as given in US9883691B2, “Food and beverage products containing 1,3-propanediol and methods of modifying flavor release using 1,3-propanediol” (Kraft Foods Group Brands LLC, priority 2012, dated 2018).
Counter-ions that a name gives are not always drawn.

Key:
[1] = not marked (est); cited from earlier work
[2] = PTR-MS real-time headspace release, watermelon flavor model in water (Example 1); assay type: physicochemical; set-up: Sample A (PG) Mean / Sample B (1,3-propanediol) Mean: unit not given here
Experimental: The impact of 1,3-propanediol on the release of flavor compounds can be analyzed by Proton Transfer Reaction Mass Spectrometry (PTR-MS; model TOF-8000 from Ionicon Analytik Inc.), where real-time headspace release of volatiles is measured. A sampling apparatus is needed in conjunction with the PTR-MS inlet to prevent variations caused by headspace kinetics. By one exemplary approach, the sampling apparatus includes a 4 ounce sample vessel equipped with a 2-hole lid which may be sealed by an adhesive film to allow equilibration. […]. The holes are equal sized (˜2 mm diameter) and match the outer diameter of the PTR-MS inlet line. The flow of the dilution gas into the vessel is regulated by the vacuum and proportional valve of the PTR-MS inlet system. The sample vessel has a base diameter of 47 mm and is 45 mm high, of which 8 mm of height is occupied by the sample in the vessel in these experiments. The 2 holes in the lid are equidistant from the edge of the vessel (˜20 mm) and about 30 mm from each other. The PTR-MS inlet is braced by clamps in a fixed position vertically above the laboratory bench (˜55 mm) and a silicone rubber depth gauge is affixed to the PTR-MS inlet tubing and set at 18 mm. The PTR-MS inlet is thus consistently oriented in a vertical position 18 mm below the inside lid of the vessel and 19 mm above the sample in the vessel. The sample vessel is then held in place during sampling according to the depth gauge on the inlet line and the vessel is subsequently supported on the bench by a 10 mm plastic spacer.
15 grams of the sample to be tested (e.g., food or beverage product containing 1,3-propanediol) are added to the vessel. The vessel is sealed and allowed to equilibrate at room temperature (˜22° C.) for 90 minutes. At the time of sampling, the seal is removed from both the sampling hole and the dilution gas hole in the lid and the vessel is immediately affixed to the PTR-MS inlet via the sampling hole. The real-time released flavor is measured from the headspace of the sample vessel for two minutes (according to the conditions listed in Table 1 below). A comparative sample is prepared that is otherwise identical to the test sample but contains propylene glycol or water instead of 1,3-propanediol. The comparative sample is then analyzed in triplicate by PTR-MS using the above-described procedure. The data can be analyzed using PTR-MS Viewer, Version 3.0.0.101 (Ionicon Analytik G.m.b.H). The point of maximum intensity for each compound of interest can be determined and recorded according to the PTR-MS Viewer software. The maximum intensity in counts over the timescale for each compound of interest can be used for data analysis as it reflects the static equilibrium headspace concentration in the system at the moment of seal removal. Due to the necessity of a dilution gas, the volatile concentration decreases over time as the compounds of interest re-equilibrate to a state of dynamic equilibrium in the headspace.
[…]. Sample A was prepared with 20 grams watermelon flavor concentrate and 80 grams propylene glycol. Sample B was prepared with 20 grams watermelon flavor concentrate and 80 grams 1,3-propanediol. Each of the samples was further diluted by adding 0.08 grams of each diluted concentrate to 99.92 grams water to provide a flavor water solution.
The diluted samples were analyzed by Proton Transfer Reaction Mass Spectrometry (PTR-MS; model TOF-8000 from Ionicon Analytik Inc.) for real-time headspace release volatiles measurement. Samples were analyzed in triplicate. […]. […].

## CCOC=O [Ethyl formate]
[1]
  logP (o/w): 0.23
[2]; PTR-MS headspace, watermelon flavor concentrate in 1,3-propanediol, diluted in water, 90 minutes equilibration, mean of three
  Sample B (1,3-propanediol) Mean: 41.67
[2]; PTR-MS headspace, watermelon flavor concentrate in propylene glycol, diluted in water, 90 minutes equilibration, mean of three
  Sample A (PG) Mean: 50.50
[2]; Sample B (1,3-propanediol) relative to Sample A (PG)
  Percent Release Difference: −17.5%
